pIC50: −log10 of the molar value. ≈ marks a conversion by molar mass, not a printed value.
Columns and labels:
HCT-116 = assay: Cytotoxicity against human HCT116 cells; type: cell-based
Staphylococcus aureus = assay: Antimicrobial activity against methicillin-resistant Staphylococcus aureus; type: functional

Structure (SMILES): CCCCCC[C@H](C)C[C@H](C)[C@H]1OC(=O)[C@H](C)NC(=O)[C@H](C)NC(=O)[C@H](CC(C)C)NC(=O)[C@H](C(C)C)NC(=O)CNC(=O)[C@@H]1C [EMERICELLAMIDE B]
- pIC50 (HCT-116): 4.40
- MIC (Staphylococcus aureus): 6 µM (≈ 3.91 µg/mL)

Structure (SMILES): CCCCCC[C@H](C)[C@H]1OC(=O)[C@H](C)NC(=O)[C@H](C)NC(=O)[C@H](CC(C)C)NC(=O)[C@H](C(C)C)NC(=O)CNC(=O)[C@@H]1C [EMERICELLAMIDE A]
- pIC50 (HCT-116): 4.64
- MIC (Staphylococcus aureus): 3.8 µM (≈ 2.32 µg/mL)

From ChEMBL document CHEMBL1142111, “Induced production of emericellamides A and B from the marine-derived fungus Emericella sp. in competing co-culture” (J Nat Prod, 2007)
